Each structure is given as a SMILES string. Read-outs that look alike come from different tables or passages of the source.

The values below come from article PMC4449373 (Clinical Pharmacokinetics, 2015).

Data set [1] is described as follows: Population pharmacokinetic analysis. In kind it is in vivo, human.
The conditions of data set [2]: adult subjects with T2D, cited from earlier work.

For `CCCCCCCCCCCCCCCC(=O)N[C@@H](CCC(=O)NCCCC[C@H](NC(=O)[C@H](C)NC(=O)[C@H](C)NC(=O)[C@H](CCC(N)=O)NC(=O)CNC(=O)[C@H](CCC(=O)O)NC(=O)[C@H](CC(C)C)NC(=O)[C@H](Cc1ccc(O)cc1)NC(=O)[C@H](CO)NC(=O)[C@H](CO)NC(=O)[C@@H](NC(=O)[C@H](CC(=O)O)NC(=O)[C@H](CO)NC(=O)[C@@H](NC(=O)[C@H](Cc1ccccc1)NC(=O)[C@@H](NC(=O)CNC(=O)[C@H](CCC(=O)O)NC(=O)[C@H](C)NC(=O)[C@@H](N)Cc1cnc[nH]1)[C@@H](C)O)[C@@H](C)O)C(C)C)C(=O)N[C@@H](CCC(=O)O)C(=O)N[C@@H](Cc1ccccc1)C(=O)N[C@H](C(=O)N[C@@H](C)C(=O)N[C@@H](Cc1c[nH]c2ccccc12)C(=O)N[C@@H](CC(C)C)C(=O)N[C@H](C(=O)N[C@@H](CCCNC(=N)N)C(=O)NCC(=O)N[C@@H](CCCNC(=N)N)C(=O)NCC(=O)O)C(C)C)[C@@H](C)CC)C(=O)O` [liraglutide], in data set [1] (compared with an adult subject of the same weight and gender), the “Decrease in AUC24, pediatric age group” value turned out to be 10%. In addition, the “Geometric mean AUC24 lower at highest observed body weight (216 kg)” value in data set [1] (compared with exposure at reference body weight of 90 kg) is 56%. For the same compound, the “Lower drug exposure (AUC24) for males” value in data set [1] (compared with the reference female subject of the same body weight) is on record as 31%. In addition, the “Mean decrease in glycated hemoglobin [HbA1c]” value in data set [2] (liraglutide 1.2 mg and 1.8 mg alone or in combination with other oral antidiabetic drugs and/or insulin) was “up to −1.5%”. For the same compound, the “Safety and tolerability profile” value in data set [2] (liraglutide 1.2 mg and 1.8 mg) is “acceptable safety and tolerability profile”. Further, the Mean weight loss in data set [2] (liraglutide 1.2 mg) is no more than -2.9 kg; in data set [2] (liraglutide 1.8 mg) it was “up to −3.4 kg”.
